According to PubChem BioAssay AID504551 (Southern Research Specialized Biocontainment Screening …, 2011):

System: MAGI-CCR5/HeLa-R5-16 cell fusion, beta-gal luminescence
Assay: HIV-1 entry blockers, R5 Env-mediated fusion – MAGI-CCR5 and HeLa-R5-16 cells, 2% serum, set 2, dose response (AID 504551)

SMILES	IC50
Cc1c2c(=O)n(-c3nc4ccccc4s3)nc-2cc(O)n1Cc1ccccc1	3.94 µM
Cc1c2c(=O)n(-c3nc4ccccc4s3)nc-2cc(O)n1Cc1ccncc1	3.94 µM
Cc1c2c(=O)n(-c3nc4ccccc4s3)nc-2cc(O)n1Cc1ccccc1Cl	3.4 µM
Cc1c2c(=O)n(-c3nc4ccccc4s3)nc-2cc(O)n1Cc1ccc(F)cc1	3.42 µM
COc1ccccc1Cn1c(O)cc2nn(-c3nc4ccccc4s3)c(=O)c-2c1C	3.73 µM
Cc1c2c(=O)n(-c3nc4ccccc4s3)nc-2cc(O)n1C1CC1	3.75 µM
Cc1c2c(=O)n(-c3nc4ccccc4s3)nc-2cc(O)n1CCC(C)C	3.25 µM
Cc1c2c(=O)n(-c3nc4ccccc4s3)nc-2cc(O)n1CCc1ccc(O)cc1	3.36 µM
COc1ccc(CCn2c(O)cc3nn(-c4nc5ccccc5s4)c(=O)c-3c2C)cc1	3.49 µM
Cc1c2c(=O)n(-c3nc4ccccc4s3)nc-2cc(O)n1Cc1cccs1	3.5 µM
COc1ccc(Cn2c(O)cc3nn(-c4nc5ccccc5s4)c(=O)c-3c2C)cc1	3.57 µM
Cc1c2c(=O)n(-c3nc4ccccc4s3)nc-2cc(O)n1CCc1cccs1	3.7 µM
Cc1c2c(=O)n(-c3nc4ccccc4s3)nc-2cc(O)n1Cc1cccnc1	3.64 µM
